Experimental findings from patent US10307414B2, “Pyridinyl and fused pyridinyl triazolone derivatives” (Takeda Pharmaceutical Company Limited, priority 2013, dated 2019) are described below.

Molecules are shown by their SMILES.

The assay concerns the target human BTK (Homo sapiens (Human), UniProt Q06187). The assay can be described thus: BTK inhibition assay: BTK-mediated phosphorylation of FAM-labeled substrate 5-FAM-[…]-NH2 (Caliper microfluidic separation). The assay is classed as biochemical. As to conditions: residues 382 to 659 of human BTK; 60 minutes at room temperature; pIC50 = -log(IC50), IC50 molar. The text has this: The activity of compounds as BTK inhibitors may be determined by a variety of methods, including in vitro and in vivo methods.
This construct engineers an in-frame translational fusion with the Glutathione-S-Transferase (GST) protein for use in affinity purification. The fusion protein derived from this construct contains a protease recognition sequence to liberate the BTK from the GST affinity tag. […] Recombinant proteins are isolated from cellular extracts by passage over Glutathione Sepharose 4B (GE Healthcare) and the BTK moiety is released from the GST affinity tag by treatment with PreScission protease. […] The purity of the fractions is assessed by SDS PAGE and the peak protein fractions are pooled and concentrated using Amicon Ultra-15 Centrifugal Filter Devices (Millipore).
The inhibitory properties of compounds relative to BTK is determined using a black 384-well-plate format in a buffer which contains 50 mM Hepes, 10 mM NaCl, 10 mM MgCl2, 0.2 mM EDTA, 0.01% Brij35®, 1 mM DTT, and 0.1 mg/mL BSA at pH 7.3. […] To quantify the fluorescent-labeled substrate and product following reaction, the test plate is loaded on a Caliper LC-3000, which measures percent of conversion by microfluidic-based separation. […]

human BTK, sequence (Q06187 382-659): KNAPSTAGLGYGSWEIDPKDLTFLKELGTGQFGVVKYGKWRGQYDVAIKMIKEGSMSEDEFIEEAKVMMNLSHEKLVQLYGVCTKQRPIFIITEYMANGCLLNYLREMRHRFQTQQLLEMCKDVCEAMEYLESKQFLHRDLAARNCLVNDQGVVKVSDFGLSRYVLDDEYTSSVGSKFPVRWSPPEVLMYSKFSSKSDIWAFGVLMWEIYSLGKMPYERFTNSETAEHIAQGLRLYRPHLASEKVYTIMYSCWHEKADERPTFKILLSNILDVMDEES

For the compound `C=CC(=O)N1C[C@@H](C)[C@H](Oc2nc(-c3n[nH]c(=O)[nH]3)cc3ccccc23)C1` (single isomer, unassigned) [Example 19], the “BTK Inhibition (pIC50)” value was greater than 8.2.
